Measured values taken from ChEMBL document CHEMBL1201862, “PubChem BioAssay data set” (2004).
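Cultured in 96-well plates, cells were exposed to test compound for 48 hours across five concentrations. GI50 is the concentration that inhibits growth by half.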 Calls of active or inactive are those of the source. Cut-off read from the data, not from the text of the source: active = GI50 up to about 1.1 µM and inactive = higher.

Columns and labels:
Test in all cases: NCI anticancer screen, dose series, 48 h
[1] = tested on: 786-0
[2] = tested on: A549
[3] = tested on: ACHN
[4] = tested on: CAKI-1
[5] = tested on: CCRF-CEM
[6] = tested on: COLO 205
[7] = tested on: DU-145
[8] = tested on: EKVX
[9] = tested on: HCC 2998
[10] = tested on: HCT-116
[11] = tested on: HL-60
[12] = tested on: HOP-62
[13] = tested on: HOP-92
[14] = tested on: HT-29
[15] = tested on: Hs-578T
[16] = tested on: IGROV-1
[17] = tested on: K562
[18] = tested on: KM12
[19] = tested on: LOX IMVI
[20] = tested on: M14
[21] = tested on: MCF7
[22] = tested on: MDA-MB-231
[23] = tested on: MDA-MB-435
[24] = tested on: MDA-N
[25] = tested on: MOLT-4
[26] = tested on: Malme-3M
[27] = tested on: NCI-H226
[28] = tested on: NCI-H23
[29] = tested on: NCI-H460
[30] = tested on: NCI-H522
[31] = tested on: NCI/ADR-RES
[32] = tested on: OVCAR-3
[33] = tested on: OVCAR-4
[34] = tested on: OVCAR-5
[35] = tested on: OVCAR-8
[36] = tested on: PC-3
[37] = tested on: RPMI-8226
[38] = tested on: RXF 393
[39] = tested on: SF-268
[40] = tested on: SF-295
[41] = tested on: SF-539
[42] = tested on: SK-MEL-28
[43] = tested on: SK-MEL-5
[44] = tested on: SK-OV-3
[45] = tested on: SN12C
[46] = tested on: SNB-19
[47] = tested on: SNB-75
[48] = tested on: SR
[49] = tested on: SW-620
[50] = tested on: T47D
[51] = tested on: TK-10
[52] = tested on: UACC-257
[53] = tested on: UACC-62
[54] = tested on: UO-31

SMILES: CCOC(=O)C(C)(C(=O)OCC)/C(Cl)=C\Cl
- GI50 [1]: > 100 µM (inactive)
- GI50 [2]: 33.7 µM (inactive)
- GI50 [3]: > 100 µM (inactive)
- GI50 [4]: > 100 µM (inactive)
- GI50 [5]: > 100 µM (inactive)
- GI50 [6]: > 100 µM (inactive)
- GI50 [7]: > 100 µM (inactive)
- GI50 [8]: > 100 µM (inactive)
- GI50 [9]: 0.0434 µM (active)
- GI50 [10]: > 100 µM (inactive)
- GI50 [11]: > 100 µM (inactive)
- GI50 [12]: > 100 µM (inactive)
- GI50 [13]: > 100 µM (inactive)
- GI50 [14]: > 100 µM (inactive)
- GI50 [15]: > 100 µM (inactive)
- GI50 [16]: > 100 µM (inactive)
- GI50 [17]: > 100 µM (inactive)
- GI50 [18]: > 100 µM (inactive)
- GI50 [19]: > 100 µM (inactive)
- GI50 [20]: > 100 µM (inactive)
- GI50 [21]: 84.7 µM (inactive)
- GI50 [22]: > 100 µM (inactive)
- GI50 [23]: > 100 µM (inactive)
- GI50 [24]: > 100 µM (inactive)
- GI50 [25]: > 100 µM (inactive)
- GI50 [26]: > 100 µM (inactive)
- GI50 [27]: > 100 µM (inactive)
- GI50 [28]: > 100 µM (inactive)
- GI50 [29]: 22.6 µM (inactive)
- GI50 [30]: > 100 µM (inactive)
- GI50 [31]: > 100 µM (inactive)
- GI50 [32]: > 100 µM (inactive)
- GI50 [33]: > 100 µM (inactive)
- GI50 [34]: > 100 µM (inactive)
- GI50 [35]: > 100 µM (inactive)
- GI50 [36]: > 100 µM (inactive)
- GI50 [37]: > 100 µM (inactive)
- GI50 [38]: > 100 µM (inactive)
- GI50 [39]: > 100 µM (inactive)
- GI50 [40]: > 100 µM (inactive)
- GI50 [41]: > 100 µM (inactive)
- GI50 [42]: > 100 µM (inactive)
- GI50 [43]: > 100 µM (inactive)
- GI50 [44]: > 100 µM (inactive)
- GI50 [45]: > 100 µM (inactive)
- GI50 [46]: > 100 µM (inactive)
- GI50 [47]: 66.1 µM (inactive)
- GI50 [48]: > 100 µM (inactive)
- GI50 [49]: > 100 µM (inactive)
- GI50 [50]: > 100 µM (inactive)
- GI50 [51]: > 100 µM (inactive)
- GI50 [52]: > 100 µM (inactive)
- GI50 [53]: > 100 µM (inactive)
- GI50 [54]: > 100 µM (inactive)
